# Reference: patent publication EP0433526A1, “Medicine for the treatment of heart-circulatory illnesses, of arrhythmics in particular” (Richter, Peter, Prof. Dr.sc.nat., priority 1989, dated 1991)
# Legend:
# [1] = rat; for therapeutische Index (Q = LD₅₀/ED₂₀): acute test, intravenous injection
# Koronararterienokklusion = assay: Coronary artery occlusion, rat, i.v. (early-phase arrhythmias); format: in vivo, Ratte; details: for Überlebensrate n. 20 min: 2 . 10⁻⁵ mol/kg i.v. 3 min before occlusion, control 33; for Normaler Sinusrhythmus / Tod durch Bradyk. / Auftreten von Arrhythmien VF / Auftreten von Arrhythmien VT / Auftreten von Arrhythmien andere: 2 . 10⁻⁵ mol/kg i.v.; for Normaler Sinusrhythmus: control 0; for Tod durch Bradyk.: control 30; for Auftreten von Arrhythmien VF: control 59; for Auftreten von Arrhythmien VT / Auftreten von Arrhythmien andere: control 82
# Method: Die Untersuchungen zur Beeinflussung der Arrhythmien in der Frühphase nach Koronarokklusion erfolgten an männlichen Wistarratten (Körpermasse 200-250 g) in Pentobarbitalnarkose. Nach Ligatur der linken Koronararterie wurden die Überlebensrate sowie das Auftreten verschiedener Arrhythmieformen innerhalb 20 min nach Okklusion bewertet. Für die überlebenden Tiere erfolgten zusätzlich die Bestimmung des Zeitpunktes des Einsetzens der Arrhythmien und deren Dauer in min sowie die Zahl der ventrikulären Extrasystolen. Das Arrhythmiegeschehen in der Frühphase nach Ligatur wurde von einer Reihe Verbindungen der allgemeinen Formel 1 nach i.v.-Injektion im positiven Sinne beeinflußt. Beispielsweise wirken (Z)- bzw. (E)-2-Amino-5-chlorbenzophenonamidinohydrazonacetat (Beispiel 21 bzw. 32) dosisabhängig und stark protektiv nach i.v. Gabe (3 min vor Okklusion) von 1 . 10⁻⁵ und 2,1 . 10⁻⁵mol/kg. Die an der Aconitinarrhythmie gefundene gute antiarrhythmische Wirkung wurde damit an der Okklusion bestätigt, was durch die in Tabelle 7 zusammengestellten Ergebnisse dokumentiert werden soll. TABELLE 7
# Infarktgröße = assay: Infarct size determination (p-NBT), rat, i.v.; format: in vivo, Ratte; details: for Hemmung der Infarktgröße x %: significant
# From the text: Die Bestimmung der Herzinfarktgröße ist ein wichtiger Parameter zum Nachweis antiischämischer Wirkqualitäten für eine Substanz. Die hier angewendete markohistochemische Infarktgrößenbestimmung durch Inkubation mit p-Nitroblautetrazoliumsalz (p-NBT) beruht auf einem Dehydrogenasenachweis, wobei p-NBT als Wasserstoffakzeptor dient und die damit verbundene Reduktion des Salzes zu einer Farbänderung desselben führt. Die Beeinflussung der Größe des ischämischen Areals - die Ischämie wurde durch Ligatur der linken Koronararterie männlicher Wistarratten (Körpermasse 200-250 g) erzeugt - wurde nach i.v. Applikation (3 min vor Okklusion) einiger Verbindungen der allgemeinen Formel 1 untersucht. Die hier erhobenen Befunde spiegeln eindeutig die myokardprotektive Wirkkomponente dieser Verbindungen wieder. […] (Beispiel 21) bzw. das (E)-/(Z)-2-Amino-5-chlorbenzophenon-N-phenylamidinohydrazonnitrat [B] (Beispiel 3) wurden die in Tabelle 9 wiedergegebenen Resultate erhalten. TABELLE 9
# g-Strophantinarrhythmie = assay: g-Strophanthin arrhythmia, guinea pig, i.v.; format: in vivo, Meerschweinchen
# Method: Die Methode beruht auf der Erzeugung ventrikulärer Arrhythmien durch g-Strophantin, das männlichen Meerschweinchen in Urethannarkose (Körpermasse 300-350 g) in der Dosierung von 30 µg/kg/min über die Vena jugularis infundiert wurde. Bewertungskriterien sind hierbei die am EKG unter g-Strophantin zu beobachtenden ersten Extrasystolen sowie der Eintritt der Asystolie. Die Verzögerung des Auftretens dieser Ereignisse unter Substanzgabe wird berechnet und ist als Maß der antiarrhythmischen Effektivität zu werten.
# [2] = system: schnellen Na⁺-Einwärtsstromes; assay: Voltage clamp on isolated adult rat heart cells
# [3] = system: isoprenalininduzierten Glykogenolyse; assay: Isoprenaline ischaemia, rat, i.v. and p.o. (heart glycogen content); format: in vivo, Ratte; details: mean of n = 10
# Method: Der Myokardschutz durch verschiedene Verbindungen der allgemeinen Formel 1 wurde nach i.v. und p.o. Applikation der Verbindungen am Modell der Isoprenalinischämie der Ratte geprüft. Die für diese Untersuchungen verwendete Methode erfaßt die Veränderungen des Glykogengehaltes im Herzgewebe unter Isoprenalin und dessen Beeinflussung durch Testsubstanzen. Isoprenalin wurde dabei intraperitoneal in Dosis von 5 mg/kg verabfolgt. Die i.v. Injektion der Prüfstoffe erfolgte unmittelbar vor der Isoprenalingabe, die orale Applikation 30 min davor. Als Versuchstiere wurden männliche Wistarratten (Körpermasse 200-250 g) eingesetzt. Einige der Verbindungen zeigten eine auffallende myokardprotektive Wirksamkeit. […] Die nach i.v.- bzw. p.o.-Applikation aus je n = 10 Tieren pro Dosis beobachteten Hemmwerte (Mittelwerte) gegenüber der Isoprenalininwirkung sind in Tabelle 8 aufgeführt. Tabelle 8
# [4] = Clinical trial stage I, intravenous, man
# [5] = Toxicology, repeated oral dosing, minipig; details: per os, repeated administration
# [6] = Toxicology, repeated oral dosing, rat; details: per os, repeated administration
# [7] = 5 . 10⁻⁷ mol/kg i.v., significant vs control
compound,measurement,setting,value
CC[C@H]1[C@@H]2C[C@H]3[C@@H]4N(C)c5ccccc5[C@]45C[C@@H]([C@@H]2[C@H]5O)N3[C@@H]1O [Ajmalin],therapeutische Index (Q = LD₅₀/ED₂₀),[1],"6,8"
"N=C(NN=C(c1ccccc1)c1cc(Cl)ccc1N)Nc1ccccc1.O=[N+]([O-])O [Beispiel 3, (E)-/(Z)-2-Amino-5-chlorbenzophenon-N-phenylamidinohydrazonnitrat]",normalen Sinusrhythmus,Koronararterienokklusion; 5 . 10⁻⁷ mol/kg i.v.,50%
same,Auftreten verschiedener Arrhythmieformen (VF),Koronararterienokklusion; [7],10%
same,Auftreten verschiedener Arrhythmieformen (VT),Koronararterienokklusion; [7],30%
same,Auftreten verschiedener Arrhythmieformen (andere),Koronararterienokklusion; [7],50%
same,Überlebensrate,Koronararterienokklusion; [7],80%
same,ischämisches Gewebe x %,"Infarktgröße; 1 . 10⁻⁷ mol/kg i.v. 3 min before occlusion, control 46,1","21,0%"
same,Hemmung der Infarktgröße x %,Infarktgröße; 1 . 10⁻⁷ mol/kg i.v.,"54,4 s %"
same,antiarrhythmische Wirkung gegenüber der g-strophantininduzierten Extrasystolie,g-Strophantinarrhythmie; 1 . 10⁻⁶ mol/kg i.v.,+19%
same,antiarrhythmische Wirkung gegenüber der g-strophantininduzierten Extrasystolie,"g-Strophantinarrhythmie; 2,10 . 10⁻⁶ mol/kg i.v.",+35%
"Cl.N=C(N)N/N=C(\c1ccccc1)c1cc(Cl)ccc1N [Beispiel 30, (E)-2-Amino-5-chlorbenzophenonamidinohydrazonhydrochlorid]",Verzögerung des Eintritts der ersten Extrasystolen,"g-Strophantinarrhythmie; 1,25 . 10⁻⁶ mol/kg i.v.",33%
CCOC(=O)Nc1ccc2c(c1)N(C(=O)CCN1CCOCC1)c1ccccc1S2 [Etmozin],therapeutische Index (Q = LD₅₀/ED₂₀),[1],"1,8"
CCOc1ccccc1OCC(O)CNCCNCC(O)COc1ccccc1OCC (centres unmarked) [Falirythmin],therapeutische Index (Q = LD₅₀/ED₂₀),[1],"11,5"
CC[C@H]1C2C[C@H]3[C@@H]4N(C)c5ccccc5[C@]45C[C@@H]([C@@H]2[C@H]5O)[N@@+]3(CC(O)CN(CC)CC)[C@@H]1O (some centres unmarked) [Tachmalcor],therapeutische Index (Q = LD₅₀/ED₂₀),[1],"25,5"
(E)-2-Amino-5-chlorbenzophenonamidinohydrazonacetat [Beispiel 32],Überlebensrate n. 20 min,Koronararterienokklusion,71 s %
same,Normaler Sinusrhythmus,Koronararterienokklusion,46 s %
same,Tod durch Bradyk.,Koronararterienokklusion,19 ns %
same,Auftreten von Arrhythmien VF,Koronararterienokklusion,8 s %
same,Auftreten von Arrhythmien VT,Koronararterienokklusion,13 s %
same,Auftreten von Arrhythmien andere,Koronararterienokklusion,54 ns %
(Z) -2-Amino-5-chlorbenzophenonamidinohydrazonacetat [Beispiel 21],schneller Na⁺-Einwärtsstrom,[2],Hemmung
same,x % Hemmung,"[3]; intravenös, 1,0 . 10⁻⁵ mol/kg","48,7%"
same,x % Hemmung,"[3]; intravenös, 1,5 . 10⁻⁵ mol/kg","37,6%"
same,x % Hemmung,"[3]; intravenös, 3,2 . 10⁻⁵ mol/kg","45,0%"
same,x % Hemmung,"[3]; intravenös, 3,2 . 10⁻⁶ mol/kg","5,9%"
same,x % Hemmung,"[3]; intravenös, 4,6 . 10⁻⁶ mol/kg","26,7%"
same,x % Hemmung,"[3]; intravenös, 5,0 . 10⁻⁵ mol/kg","69,6%"
same,x % Hemmung,"[3]; peroral, 1,0 . 10⁻⁴ mol/kg","25,6%"
same,x % Hemmung,"[3]; peroral, 1,9 . 10⁻⁴ mol/kg","81,4%"
same,x % Hemmung,"[3]; peroral, 3,7 . 10⁻⁴ mol/kg","71,4%"
same,x % Hemmung,"[3]; peroral, 5,0 . 10⁻⁴ mol/kg","85,3%"
same,x % Hemmung,"[3]; peroral, 7,2 . 10⁻⁵ mol/kg, 30 min before isoprenaline","37,2%"
same,Überlebensrate n. 20 min,Koronararterienokklusion,70 s %
same,Normaler Sinusrhythmus,Koronararterienokklusion,26 s %
same,Tod durch Bradyk.,Koronararterienokklusion,25 ns %
same,Auftreten von Arrhythmien VF,Koronararterienokklusion,8 s %
same,Auftreten von Arrhythmien VT,Koronararterienokklusion,13 s %
same,Auftreten von Arrhythmien andere,Koronararterienokklusion,54 ns %
same,ischämisches Gewebe x %,"Infarktgröße; 2 . 10⁻⁵ mol/kg i.v. 3 min before occlusion, control 35,0","15,2%"
same,Hemmung der Infarktgröße x %,Infarktgröße; 2 . 10⁻⁵ mol/kg i.v.,"56,6 s %"
same,"Dosierung, ab der die antiarrhythmische Aktivität ausreichend erscheint",[4],"≥ 0,25 mg/kg"
same,"Dosis, bei der die antiarrhythmische Aktivität beginnt",[4],"0,06 mg/kg"
same,Dosen als gut verträglich eingeschätzt,[5],30 mg/kg
same,therapeutische Index (Q = LD₅₀/ED₂₀),[1],"40,0"
same,therapeutische Index Qp.o.,[1]; single oral administration,"74,3"
same,Dosen als gut verträglich eingeschätzt,[6],25 mg/kg
same,Verzögerung des Auftretens der ersten Extrasystolen,"g-Strophantinarrhythmie; 6,25 . 10⁻⁷ mol/kg i.v. 5 min before g-strophanthin infusion, significant",28%
